Measured values taken from patent publication US5650411A, “Substituted azolone derivatives” (Janssen Pharmaceutica N.V., priority 1993, dated 1997).
Converted amounts (≈) assume the structure as drawn. Counter-ions that a name gives are not always drawn.

Each compound was assayed on Helicobacter pylori (assay: Minimal inhibitory concentration (MIC) against Helicobacter pylori, urease read-out, 5 clinical strains). Settings: 5 H. pylori clinical strains, 10% blood agar, 48 h at 37° C., microaerophilic, read-out: MIC.
Assay type: cell-based
Procedure: The anti-Helicobacter activity of the subject compounds was assessed by the following in-vitro test procedure.
The activity of test compounds against Helicobacter pylori was determined against a standard set of 5 H. priori strains obtained from clinical material. Minimal inhibitory concentrations (MICs) were determined by measuring the activity of H. pylori urease after treatment of growing cultures of the bacteria with the antimicrobial agents.
The test compounds were dissolved in DMSO at a concentration of 10^-3 M. A dilution to 10^-4 M in DMSO was also prepared. 10 μl volumes of these solutions were pipetted in the wells of Repli-Dishes (®Sterilin). Wells containing DMSO alone were included as controls in each Repli-Dish. Ampicillin ((+)-6-[(2-amino-2-phenylacetyl)amino]-3,3-dimethyl-7-oxo-4-thia-1-azabicyclo[3.2.0]heptane-2-carboxylic acid trihydrate) and metronidazole (2-methyl-5-nitro-1H-imidazol-1-ethanol) were included as reference compounds in each batch of tests. (These compounds were tested at final concentrations of 10^-5, 10^-6, 10^-7 and 10^-8 M). Test plates were stored at 4° C. until used. The five isolates of H. pylori were maintained by subculture on 10% blood agar every 2 or 3 days. The bacteria were grown at 37° C. under an atmosphere containing 5% oxygen, 10% CO2 and 85% nitrogen. Suspensions of Helicobacter pylori for inoculum were prepared in Brain-heart infusion broth and adjusted to an absorbance of 1.5±0.3 at […].
Freshly prepared 10% blood agar held at 45° C. was added in 1 ml volumes to the wells of the test plates, thus diluting the test compounds to 10^-5 and 10^-6 M. The medium was allowed to cool, then 10 μl volumes of bacterial suspension were pipetted on the agar surface. The plates were incubated for 48 h at 37° C. under the microaerophilic atmosphere described above. […] After the 48 h of incubation, 1 ml volumes of urease broth were gently added to each Repli-Dish well and the plates were incubated at 37° C. for 2 h. 100 μl samples of fluid from each well were then pipetted into the wells of 96-place microdilution plates. A purple colour was interpreted as growth, yellow-orange as no growth of H. pylori. By this means a clear end-point was obtained, from which the inhibitory effects could be determined.
Table 1 summarizes the MIC values determined by the above procedure for a subset of the subject compounds.

| MIC | Structure (SMILES) |
| --- | --- |
| 0.1 µM (≈ 0.0533 µg/mL) | CCC(C(=O)c1ccc(Cl)cc1)n1ncn(-c2ccc(N3CCN(c4ccc(OC)cc4)CC3)nc2)c1=O (racemic) [compound 1, (±)-2-[1-(4-chlorobenzoyl)propyl]-2,4-dihydro-4-[6-[4-(4-methoxyphenyl)-1-piperazinyl]-3-pyridinyl]-3H-1,2,4-triazol-3-one] |
| 10 µM (≈ 5.33 µg/mL) | CCC(C(=O)c1ccc(Cl)cc1)n1ncn(-c2ccc(N3CCN(c4ccc(OC)cc4)CC3)cn2)c1=O (racemic) [compound 2, (±)-2-[1-(4-chlorobenzoyl)propyl]-2,4-dihydro-4-[5-[4-(4-methoxyphenyl)-1-piperazinyl]-2-pyridinyl]-3H-1,2,4-triazol-3-one] |
| 0.1 µM (≈ 0.0533 µg/mL) | CCC(C(=O)c1ccc(Cl)cc1)n1ncn(-c2ccc(N3CCN(c4ccc(OC)cn4)CC3)cc2)c1=O (racemic) [compound 3, (±)-2-[1-(4-chlorobenzoyl)propyl]-2,4-dihydro-4-[4-[4-(5-methoxy-2-pyridinyl)-1-piperazinyl]phenyl]-3H-1,2,4-triazol-3-one] |
| 0.01 µM (≈ 0.00533 µg/mL) | CCC(C(=O)c1ccc(Cl)cc1)n1ncn(-c2ccc(N3CCN(c4cccc(OC)c4)CC3)nc2)c1=O (racemic) [compound 4, (±)-2-[1-(4-chlorobenzoyl)propyl]-4-[6-[4-(3-methoxyphenyl)-1-piperazinyl]-3-pyridinyl]-2,4-dihydro-3H-1,2,4-triazol-3-one] |
| 0.1 µM (≈ 0.0533 µg/mL) | CCC(C(=O)c1ccc(Cl)cc1)n1ncn(-c2ccc(N3CCN(c4ccccc4OC)CC3)nc2)c1=O (racemic) [compound 5, (±)-2-[1-(4-chlorobenzoyl)propyl]-2,4-dihydro-4-[6-[4-(2-methoxyphenyl)-1-piperazinyl]-3-pyridinyl]-3H-1,2,4-triazol-3-one] |
| 0.1 µM (≈ 0.0533 µg/mL) | CCC(C(=O)c1ccc(Cl)cc1)n1ncn(-c2ccc(N3CCN(c4ccc(OC)nc4)CC3)cc2)c1=O (racemic) [compound 6, (±)-2-[1-(4-chlorobenzoyl)propyl]-2,4-dihydro-4-[4-[4-(6-methoxy-3-pyridinyl)-1-piperazinyl]phenyl]-3H-1,2,4-triazol-3-one] |
| 0.1 µM (≈ 0.0532 µg/mL) | CCC(C(=O)c1ccc(Cl)cc1)n1ncn(-c2ccc(N3CCC(c4cccc(OC)c4)CC3)nc2)c1=O (racemic) [compound 7, (±)-2-[1-(4-chlorobenzoyl)propyl]-2,4-dihydro-4-[6-[4-(3-methoxyphenyl)-1-piperidinyl]-3-pyridinyl]-3H-1,2,4-triazol-3-one] |
| 0.1 µM (≈ 0.0534 µg/mL) | CCC(C(=O)c1ccc(Cl)cc1)n1ncn(-c2cnc(N3CCN(c4ccc(OC)cc4)CC3)nc2)c1=O (racemic) [compound 8, (±)-2-[1-(4-chlorobenzoyl)propyl]-2,4-dihydro-4-[2-[4-(4-methoxyphenyl)-1-piperazinyl]-5-pyrimidinyl]-3H-1,2,4-triazol-3-one] |
| 0.1 µM (≈ 0.0593 µg/mL) | CCC(C)(C(O)c1ccc(Br)cc1)n1nc(C)n(-c2ccc(N3CCN(c4ccc(O)cc4)CC3)cc2)c1=O (racemic) [compound 13, (±)-2-[1-[(4-bromophenyl)hydroxymethyl]-1-methylpropyl]-2,4-dihydro-4-[4-[4-(4-hydroxyphenyl)-1-piperazinyl]phenyl]-5-methyl-3H-1,2,4-triazol-3-one] |
| 0.1 µM (≈ 0.0521 µg/mL) | CCC(C(O)c1ccc(Cl)cc1)n1ncn(-c2ccc(N3CCN(c4ccc(O)cc4)CC3)nc2)c1=O (racemic) [compound 14, (±)-2-[1-[(4-chlorophenyl)hydroxymethyl]propyl]-2,4-dihydro-4-[6-[4-(4-hydroxyphenyl)-1-piperazinyl]-3-pyridinyl]-3H-1,2,4-triazol-3-one] |
| 0.1 µM (≈ 0.0564 µg/mL) | CC(C)(C(O)c1ccc(Br)cc1)n1ncn(-c2ccc(N3CCN(c4ccc(O)cc4)CC3)cc2)c1=O (racemic) [compound 21, (±)-2-[2-(4-bromophenyl)-2-hydroxy-1,1-dimethylethyl]-2,4-dihydro-4-[4-[4-(4-hydroxyphenyl)-1-piperazinyl]phenyl]-3H-1,2,4-triazol-3-one] |
| 1 µM (≈ 0.579 µg/mL) | Cc1nn(C(C)(C)C(O)c2ccc(Br)cc2)c(=O)n1-c1ccc(N2CCN(c3ccc(O)cc3)CC2)cc1 (racemic) [compound 22, (±)-2-[2-(4-bromophenyl)-2-hydroxy-1,1-dimethylethyl]-2,4-dihydro-4-[4-[4-(4-hydroxyphenyl)-1-piperazinyl]phenyl]-5-methyl-3H-1,2,4-triazol-3-one] |
| 0.1 µM (≈ 0.0519 µg/mL) | CCC(C(=O)c1ccc(Cl)cc1)n1ncn(-c2ccc(N3CCN(c4ccc(O)cc4)CC3)nc2)c1=O (racemic) [compound 25, (±)-2-[1-(4-chlorobenzoyl)propyl]-2,4-dihydro-4-[6-[4-(4-hydroxyphenyl)-1-piperazinyl]-3-pyridinyl]-3H-1,2,4-triazol-3-one] |
| 0.1 µM (≈ 0.052 µg/mL) | CCC(C(=O)c1ccc(Cl)cc1)n1ncn(-c2cnc(N3CCN(c4ccc(O)cc4)CC3)nc2)c1=O (racemic) [compound 26, (±)-2-[1-(4-chlorobenzoyl)propyl]-2,4-dihydro-4-[2-[4-(4-hydroxyphenyl)-1-piperazinyl]-5-pyrimidinyl]-3H-1,2,4-triazol-3-one] |
| 0.1 µM (≈ 0.0519 µg/mL) | CCC(C(=O)c1ccc(Cl)cc1)n1ncn(-c2ccc(N3CCN(c4ccc(O)cn4)CC3)cc2)c1=O (racemic) [compound 27, (±)-2-[1-(4-chlorobenzoyl)propyl]-2,4-dihydro-4-[4-[4-(5-hydroxy-2-pyridinyl)-1-piperazinyl]phenyl]-3H-1,2,4-triazol-3-one] |
| 0.01 µM (≈ 0.00519 µg/mL) | CCC(C(=O)c1ccc(Cl)cc1)n1ncn(-c2ccc(N3CCN(c4cccc(O)c4)CC3)nc2)c1=O (racemic) [compound 28, (±)-2-[1-(4-chlorobenzoyl)propyl]-2,4-dihydro-4-[6-[4-(3-hydroxyphenyl)-1-piperazinyl]-3-pyridinyl]-3H-1,2,4-triazol-3-one] |
| 0.1 µM (≈ 0.0519 µg/mL) | CCC(C(=O)c1ccc(Cl)cc1)n1ncn(-c2ccc(N3CCN(c4ccccc4O)CC3)nc2)c1=O (racemic) [compound 29, (±)-2-[1-(4-chlorobenzoyl)propyl]-2,4-dihydro-4-[6-[4-(2-hydroxyphenyl)-1-piperazinyl]-3-pyridinyl]-3H-1,2,4-triazol-3-one] |
| 10 µM (≈ 5.56 µg/mL) | Cc1nn(CC(O)c2ccc(OC(F)(F)F)cc2)c(=O)n1-c1ccc(N2CCN(c3ccc(O)cc3)CC2)cc1 (racemic) [compound 36, (±)-2,4-dihydro-4-[4-[4-(4-hydroxyphenyl)-1-piperazinyl]phenyl]-2-[2-hydroxy-2-[4-(trifluoromethoxy)-phenyl]ethyl]-5-methyl-3H-1,2,4-triazol-3-one] |
| 0.1 µM (≈ 0.0534 µg/mL) | CCC(C(=O)c1ccc(Cl)cc1)n1ncn(-c2ccc(N3CCN(c4ccc(OC)cn4)CC3)nc2)c1=O (racemic) [compound 37, (±)-2-[1-(4-chlorobenzoyl)propyl]-2,4-dihydro-4-[6-[4-(5-methoxy-2-pyridinyl) -1-piperazinyl]-3-pyridinyl]-3H-1,2,4-triazol-3-one] |
| 0.01 µM (≈ 0.00562 µg/mL) | CCC(C(=O)c1ccc(Cl)cc1)n1ncn(-c2ccc(N3CCC(c4ccc(OC)c(OC)c4)CC3)nc2)c1=O (racemic) [compound 45, (±)-2-[1-(4-chlorobenzoyl)propyl]-4-[6-[4-(3,4-dimethoxyphenyl)-1-piperidinyl]-3-pyridinyl]-2,4-dihydxo-3H-1,2,4-triazol-3-one] |
| ≤ 0.001 µM | CCC(C(=O)c1ccc(Cl)cc1)n1ncn(-c2ccc(N3CCN(c4ccc(OC)c(OC)c4)CC3)nc2)c1=O (racemic) [compound 48, (±) -2-[1-(4-chlorobenzoyl)propyl]-4-[6-[4-(3,4-dimethoxyphenyl)-1-piperazinyl]-3-pyridinyl]-2,4-dihydro-3H-1,2,4-triazol-3-one dihydrochloride] |
| 1 µM | Cc1cc(N2CCN(c3ccc(-n4c(C)nn([C@H](C)[C@H](O)c5ccc(Cl)c(Cl)c5)c4=O)cc3)CC2)cc(C)c1O (relative stereo) [compound 10, (±)-(R*,R*)-2-[2-(3,4-dichlorophenyl)-2-hydroxy-1-methylethyl]-2,4-dihydro-4-[4-[4-(4-hydroxy-3,5-dimethylphenyl)-1-piperazinyl]phenyl]-5-methyl-3H-1,2,4-triazol-3-one hemihydrate] |
| 0.1 µM (≈ 0.0535 µg/mL) | CC[C@H]([C@H](O)c1ccc(Cl)cc1)n1ncn(-c2ccc(N3CCN(c4ccc(OC)cn4)CC3)cc2)c1=O (relative stereo) [compound 15, (±)-(RR,SS)-2-[1-[(4-chlorophenyl)hydroxymethyl]propyl]-2,4-dihydro-4-[4-[4-(5-methoxy-2-pyridinyl)-1-piperazinyl]phenyl]-3H-1,2,4-triazol-3-one] |
| 0.1 µM (≈ 0.0535 µg/mL) | CC[C@H]([C@H](O)c1ccc(Cl)cc1)n1ncn(-c2ccc(N3CCN(c4ccccc4OC)CC3)nc2)c1=O (relative stereo) [compound 17, (±)-(R*,R*)-2-[1-[(4-chlorophenyl)hydroxymethyl]propyl]-2,4-dihydro-4-[6-[4-(2-methoxyphenyl)-1-piperazinyl]-3-pyridinyl]-3H-1,2,4-triazol-3-one] |
